# Source: ChEMBL document CHEMBL1177672, “Discovery of orally available spirodiketopiperazine-based CCR5 antagonists” (Bioorg Med Chem, 2010)
# Columns and labels:
# [1] = tested on: Liver microsomes; test: (§1) Metabolic stability in rat liver microsomes assessed as compound remaining at 0.5 mg/ml after 15 mins; type: ADME, Microsome; conditions: microsomes, 0.25 h
# [2] = target: C-C chemokine receptor type 5 (Homo sapiens, UniProt P51681); test: Antagonist activity at human CCR5 receptor expressed in CHO cells assessed as inhibition of MIP-1-alpha-stmulated calcium mobilization; type: functional, cell-based
# Sequence of C-C chemokine receptor type 5 (P51681 whole entry): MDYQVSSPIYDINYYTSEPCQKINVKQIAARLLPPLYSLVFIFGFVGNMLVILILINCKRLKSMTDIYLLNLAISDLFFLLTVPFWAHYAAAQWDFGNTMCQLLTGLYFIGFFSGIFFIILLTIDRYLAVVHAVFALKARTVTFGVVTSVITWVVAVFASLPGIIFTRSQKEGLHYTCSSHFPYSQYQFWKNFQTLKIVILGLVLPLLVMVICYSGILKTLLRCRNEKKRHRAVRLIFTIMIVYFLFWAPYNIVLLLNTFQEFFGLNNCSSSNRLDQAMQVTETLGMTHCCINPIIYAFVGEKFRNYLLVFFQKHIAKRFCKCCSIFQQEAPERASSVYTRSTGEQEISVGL
# [3] = Half life in rat at 30 mg/kg, po; type: ADME, organism-based; design: dose 30 mg/kg, route oral; conditions: in vivo
# [4] = Aqueous solubility of the compound; type: physicochemical; conditions: buffer
# [5] = tested on: Caco-2; test: Apparent permeability from apical to basolateral side of human Caco-2 cells; type: ADME, cell-based
# [6] = tested on: Human immunodeficiency virus 1; test: microbe, parasite or virus in culture; conditions: Human immunodeficiency virus 1, BAL
# Description: Antiviral activity against HIV1 BAL by p24 assay
# [7] = as §1; type: ADME, Microsome; conditions: liver microsomes, read-out: Stability
# [8] = tested on: Caco-2; test: Apparent permeability from basolateral to apical side of human Caco-2 cells; type: ADME, cell-based
# [9] = tested on: Liver microsomes; test: Half life in rat liver microsome at 0.2 mg/ml; type: ADME
# [10] = Cmax in rat at 30 mg/kg, po; type: ADME, organism-based; design: dose 30 mg/kg, route oral; conditions: in vivo
# [11] = (§2) AUC in rat at 30 mg/kg, po; type: ADME, organism-based, Plasma; design: dose 30 mg/kg, route oral; conditions: plasma
# [12] = Half life in rat at 3 mg/kg, iv; type: ADME, organism-based; design: dose 3 mg/kg, route intravenous; conditions: in vivo
# [13] = Clearance in rat at 3 mg/kg, iv; type: ADME, organism-based; design: dose 3 mg/kg, route intravenous; conditions: in vivo
# [14] = tested on: Rattus norvegicus; test: AUC in rat at 3 mg/kg, iv; type: ADME, organism-based, Plasma; design: dose 3 mg/kg, route intravenous; conditions: in vivo
# [15] = tested on: Rattus norvegicus; test: as §2; type: ADME, organism-based, Plasma; design: dose 30 mg/kg, route oral; conditions: in vivo
# [16] = Volume of distribution at steadt state in rat at 3 mg/kg, iv; conditions: in vivo
# [17] = Oral bioavailability in rat at 30 mg/kg; type: ADME, organism-based; conditions: in vivo
SMILES,Stability [1],IC50 [2],t1/2 [9],further results
CCCCN1C(=O)[C@H](CC2CCCCC2)NC(=O)C12CCN(Cc1ccc(C(=O)Nc3ccccc3)cc1)CC2.Cl,29%,57 nM,,
CCCCN1C(=O)[C@H](CC2CCCCC2)NC(=O)C12CCN(Cc1ccc(Oc3ccc(OC)cc3)cc1)CC2.Cl,34%,130 nM,,
CCCCN1C(=O)[C@H](CC2CCCCC2)NC(=O)C12CCN(Cc1ccc(Oc3ccc(C(=O)NC)cc3)cc1)CC2.Cl,4%,33 nM,,half-life [3]: 72.7 min; solubility [4]: 6 µM; Papp [5]: 3.51 ×10⁻⁶ cm/s
CCCCN1C(=O)[C@H](CC2CCCCC2)NC(=O)C12CCN(Cc1ccc(Oc3ccc(NS(C)(=O)=O)cc3)cc1)CC2.Cl,15%,40 nM,,
CCCCN1C(=O)[C@H](CC2CCCCC2)NC(=O)C12CCN(Cc1ccc(Oc3ccc(S(N)(=O)=O)cc3)cc1)CC2.Cl,24%,28 nM,,IC50 [6]: 10 nM
CCCCN1C(=O)[C@H](CC2CCCCC2)NC(=O)C12CCN(Cc1ccc(Oc3ccc(C(=O)O)cc3)cc1)CC2.Cl,,,,remaining at 0.25 h [7]: 22%; solubility [4]: 29 µM; Papp [5]: 11 ×10⁻⁶ cm/s; Papp [8]: 16.8 ×10⁻⁶ cm/s
CCCCN1C(=O)[C@H](CC2CCCCC2)NC(=O)C12CCN(Cc1ccc(S(=O)(=O)c3ccccc3)cc1)CC2.Cl,19%,86 nM,,
CCCCN1C(=O)[C@H](CC(C)(C)C)NC(=O)C12CCN(Cc1ccc(Oc3ccccc3)cc1)CC2.Cl,,79 nM,12 min,
CCCCN1C(=O)[C@H](CC2CCCCC2)NC(=O)C12CCN(Cc1ccc(Sc3ccccc3)cc1)CC2.Cl,38%,170 nM,,
CCCCN1C(=O)[C@H](CC2CCCCC2)NC(=O)C12CCN(CCc1ccc(Oc3ccccc3)cc1)CC2,,> 3000 nM,,
CCCCN1C(=O)[C@H](CC2CCCCC2)NC(=O)C12CCN(Cc1nc(-c3ccccc3)oc1C)CC2,,450 nM,,
CCCCN1C(=O)[C@H](CC2CCCCC2)NC(=O)C12CCN(Cc1ccc(C(=O)c3ccccc3)cc1)CC2.Cl,23%,81 nM,,
CCCCN1C(=O)[C@H](CC2CCCCC2)NC(=O)C12CCN(Cc1ccc(Oc3ccc(F)cc3)cc1)CC2.Cl,53%,92 nM,,
CCCCN1C(=O)[C@H](CC2CCCCC2)NC(=O)C12CCN(Cc1ccc(Oc3ccc(C)cc3)cc1)CC2.Cl,48%,79 nM,,
CCCCN1C(=O)[C@H](CC2CCCCC2)NC(=O)C12CCN(Cc1ccc(Oc3ccc(O)cc3)cc1)CC2.Cl,22%,42 nM,,Cmax [10]: 100 ng/mL; half-life [3]: 205 min; AUC [11]: 195 ng·h/mL; solubility [4]: < 5 µM; Papp [5]: 0.33 ×10⁻⁶ cm/s; Papp [8]: 0.14 ×10⁻⁶ cm/s
CCCCN1C(=O)[C@H](CC2CCCCC2)NC(=O)C12CCN(Cc1ccc(-c3cccnc3)cc1)CC2.Cl.Cl,29%,71 nM,,
CCCCN1C(=O)[C@H](CC(C)C)NC(=O)C12CCN(Cc1ccc(Oc3ccccc3)cc1)CC2.Cl,,,7.1 min,
CC(C)CC1NC(=O)C2(CCN(Cc3ccc(Oc4ccccc4)cc3)CC2)N(CC(C)C)C1=O.Cl (racemic),,330 nM,15 min,

SMILES,Stability [1],IC50 [2],t1/2 [9],further results
CCCCN1C(=O)C(CC(=O)OCc2ccccc2)NC(=O)C12CCN(Cc1ccc(Oc3ccccc3)cc1)CC2 (racemic),,590 nM,,
CCCCN1C(=O)C(CCCC2CCCCC2)NC(=O)C12CCN(Cc1ccc(Oc3ccccc3)cc1)CC2.Cl (racemic),,> 3000 nM,23 min,
CCCCN1C(=O)C(CC2CCCC2)NC(=O)C12CCN(Cc1ccc(Oc3ccccc3)cc1)CC2.Cl (racemic),,52 nM,20 min,
C/C=C/CN1C(=O)C(CC(C)C)NC(=O)C12CCN(Cc1ccc(Oc3ccccc3)cc1)CC2.Cl (racemic),,69 nM,14 min,
CC#CCN1C(=O)C(CC(C)C)NC(=O)C12CCN(Cc1ccc(Oc3ccccc3)cc1)CC2.Cl (racemic),,54 nM,15 min,
CC(C)CC1NC(=O)C2(CCN(Cc3ccc(Oc4ccccc4)cc3)CC2)N(Cc2ccccc2)C1=O (racemic),,300 nM,,
CCCCN1C(=O)C(CCC)NC(=O)C12CCN(Cc1ccc(Oc3ccccc3)cc1)CC2.Cl (racemic),,50 nM,22 min,
CCCCN1C(=O)C(CC2CCCCC2)NC(=O)C12CCN(Cc1csc(-c3ccccc3)n1)CC2 (racemic),,570 nM,,
CCCCN1C(=O)C(CC(=O)O)NC(=O)C12CCN(Cc1ccc(Oc3ccccc3)cc1)CC2 (racemic),,> 3000 nM,,
CCCCN1C(=O)C(CC2CCCCC2)NC(=O)C12CCN(c1ccc(C(=O)OCC)cc1)CC2 (racemic),,> 3000 nM,,
CCCCN1C(=O)C(CC2CCCCC2)NC(=O)C12CCN(C(=O)OCc1ccccc1)CC2 (racemic),,3000 nM,,
CCCCN1C(=O)C(CC2CCCCC2)NC(=O)C12CCN(Cc1c[nH]c(-c3ccccc3)n1)CC2 (racemic),,160 nM,,
CCCCN1C(=O)C(CC2CCCCC2)NC(=O)C12CCN(Cc1c(C)nn(-c3ccccc3)c1C)CC2.Cl.Cl (racemic),23%,35 nM,,
CCCCN1C(=O)C(CC2CCCCC2)NC(=O)C12CCN(Cc1ccc(Oc3ccccc3)nc1)CC2.Cl.Cl (racemic),10%,21 nM,,
CCCCN1C(=O)C(CC2CCCCC2)NC(=O)C12CCN(Cc1ccc(Oc3ccccc3)cc1)CC2.Cl (racemic),,,24 min,AUC [11]: 74.4 ng·h/mL; half-life [12]: 19.9 min; clearance [13]: 113 mL/min/kg; solubility [4]: < 5 µM; Papp [5]: 0.15 ×10⁻⁶ cm/s; AUC [14]: 400 ng; Papp [8]: 0.27 ×10⁻⁶ cm/s
CCCCN1C(=O)C(CC(C)C)NC(=O)C12CCN(Cc1ccc(Oc3ccccc3)cc1)CC2.Cl (racemic),,,12 min,Cmax [10]: 100 ng/mL; half-life [3]: 75.7 min; AUC [15]: 290 ng·h/mL; half-life [12]: 13 min; solubility [4]: 14 µM; Papp [5]: 1.51 ×10⁻⁶ cm/s; AUC [14]: 372 ng; Papp [8]: 2.23 ×10⁻⁶ cm/s
CC(C)CC1NC(=O)C2(CCN(Cc3ccc(Oc4ccccc4)cc3)CC2)N(CCC(C)O)C1=O.Cl (racemic),,> 3000 nM,12 min,Cmax [10]: 7200 ng/mL; half-life [3]: 48.4 min; Vd [16]: 0.145 L/kg; AUC [11]: 10500 ng·h/mL; half-life [12]: 11.1 min; bioavailability [17]: 34.1%; clearance [13]: 16 mL/min/kg
CCCCN1C(=O)C(CC2CCCCC2)NC(=O)C12CCN(Cc1ccc(OC)cc1)CC2.Cl (racemic),,,8.3 min,
